These results are taken from patent US5506256A, “Proline derivatives possessing prolyl endopeptidase-inhibitory activity” (Yoshitomi Pharmaceutical Industries, Ltd., priority 1990, dated 1996).

For assay [1], the system named is leucine aminopeptidase. Kind of assay: Determination of leucine aminopeptidase-inhibitory activity. On the set-up: unit not given here. Format: biochemical, swine. As for the experimental part: (§1) The methods for the measurement of inhibitory activities against various proteases and the method for calculating the inhibition rate are as follows.
Determination of leucine aminopeptidase-inhibitory activity
Similarly, by following the procedure mentioned above, but employing a 50 mM Tris-HCl buffer (pH 8.0) as a buffer for measurement, a […] solution of leucine aminopeptidase (derived from swine kidney, Sigma) in the same buffer as an enzyme solution and a 200 μM solution of 7-leucyl-4-methyl-coumarinamide (Peptide Institute, Inc.) in the same buffer as a substrate solution, each fluorescence (d1, d2 and d3) was determined, respectively.
(§2) Using the fluorescence x1, x2 and x3 measured in the abovementioned manner, the inhibitory rate against various proteases was calculated by the following formula where x stands for b, c, d, e or f: [formula]

Assay [2] addresses T1, elastase (Sus scrofa, UniProt P00772).
T1 construct: purchased Sigma; host or cells: swine pancreas
Kind of assay: Determination of elastase-inhibitory activity. Format: biochemical, swine. The note with it: read-out: inhibition rate, elastase. The protocol:
as §1
Determination of elastase-inhibitory activity
Similarly, by following the procedure mentioned above, but employing a 1 mM Tris-HCl buffer (pH 8.5) as a buffer for measurement, a 0.2 μM solution of elastase (derived from swine pancreas, Sigma) in the same buffer as an enzyme solution and a 200 μM solution of 7-(N-succinyl-aranyl-prolyl-aranyl)-4-methylcoumarinamide (Peptide Institute, Inc.) in the same buffer as a substrate solution, each fluorescence (e1, e2 and e3) was determined, respectively.
as §2

Assay [3] concerns the target T2, prolyl endopeptidase (Rattus norvegicus, UniProt O70196).
T2 construct: prolyl endopeptidase extracted from rat brain; from tissue; host or cells: rat brain
Description: Prolyl endopeptidase-inhibitory activity. Format: biochemical. As to conditions: for inhibition at 1 µM / inhibition at 0.1 µM: read-out: inhibition rate, prolyl endopeptidase; for IC50: prolyl endopeptidase extracted from rat brain, pH 7.0, 30° C., read-out: IC50. The protocol:
Prolyl endopeptidase-inhibitory activity
A mixture of a 0.1M potassium sodium phosphate buffer (pH 7.0) (2675 μl), a solution of the compounds of the present invention in a 0.1M potassium sodium phosphate buffer (pH 7.0) (100 μl) and a solution of prolyl endopeptidase extracted from rat brain in a 25 mM sodium phosphate buffer (100 μl) [123 unit/1, pH 6.8, containing 1 mM dithiothreitol and 0.5 mM EDTA, prepared by the method described in J. Neurochem., 35, 527 (1980)]was preincubated at 30° C. for 30 minutes. Thereto was added a 0.2 mM solution of 7-(N-succinyl-glycyl-prolyl)-4-methylcoumarinamide (Peptide Institute, INC.) in a 0.1M potassium sodium phosphate buffer (pH 7.0) (125 μl), and the mixture was incubated at 30° C. for 1 hour. The reaction mixture was immersed in ice (0° C.) to terminate the reaction, and the fluorescence (a1) was determined ten minutes later (excitation at 370 nm and emission at 440 nm). Concurrently, there were conducted the experiment wherein, in the above system, the prolyl endopeptidase solution was substituted for a 25 mM sodium phosphate buffer (pH 6.8, containing 1 mM dithiothreitol and 0.5 mM EDTA) and the experiment wherein the solution of the compounds of the present invention was substituted for a 0.1M potassium sodium phosphate buffer (pH 7.0). Each fluorescence (a2 and a3) was determined respectively [See Tanpakushitsu Kakusan Koso, 29, 127 (1984)]. The prolyl endopeptidase-inhibition rate was calculated by the following formula, and IC50, a concentration of a compound producing 50% inhibition, was estimated by semilogarithmic graph paper. [formula] […]

Assay [4] concerns the target T3, trypsin (Bos taurus, UniProt P00760).
T3 construct: purchased Sigma; host or cells: bovine pancreas
T3 sequence (P00760 24-246): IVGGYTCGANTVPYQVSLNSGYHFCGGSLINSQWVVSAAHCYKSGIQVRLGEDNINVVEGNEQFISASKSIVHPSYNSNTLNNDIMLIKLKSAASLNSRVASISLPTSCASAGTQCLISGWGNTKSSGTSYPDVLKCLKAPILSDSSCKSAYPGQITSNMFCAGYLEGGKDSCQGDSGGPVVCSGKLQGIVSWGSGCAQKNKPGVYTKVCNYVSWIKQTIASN
Kind of assay: Determination of trypsin-inhibitory activity. Format: biochemical, bovine. As to conditions: read-out: inhibition rate, trypsin. As for the experimental part:
as §1
Determination of trypsin-inhibitory activity
In the present invention, a 50 mM Tris-HCl buffer (pH 8.0) was employed as a buffer for measurement.
To a mixture of the above-mentioned buffer (850 μl), a solution of the compounds of the present invention in the same buffer (50 μl) and a 0.02 μM solution of trypsin (derived from bovine pancreas, Sigma) in the same buffer (50 μl) was added a 200 μM solution of 7-(prolyl-phenylaranyl-arginyl)-4-methylcoumarinamide (Peptide Institute, Inc.) in the same buffer (50 μl),and the mixture was incubated at 30° C. for 1 hour. The reaction mixture was immersed in ice (0° C.) to terminate the reaction, and the fluorescence (b1) was determined 1 hour later (excitation at 370 nm and emission at 440 nm). Concurrently, there were conducted the experiment wherein, in the system above, the trypsin solution was substituted for a buffer alone, and the experiment wherein the solution of the compounds of the present invention was substituted for a buffer above. Each fluorescence (b2 and b3) was determined respectively.
as §2

Assay [5] has as its target T4, chymotrypsin (Bos taurus, UniProt P00766).
T4 construct: purchased Sigma; host or cells: bovine pancreas
Kind of assay: Determination of chymotrypsin-inhibitory activity. It counts as biochemical, bovine. The note with it: read-out: inhibition rate, chymotrypsin. The protocol: as §1
Determination of chymotrypsin-inhibitory activity
Similarly, by following the procedure mentioned above, but employing a 50 mM Tris-HCl buffer (pH 8.0) as a buffer for measurement, a 0.2 μM solution of chymotrypsin (derived from bovine pancreas, Sigma) in the same buffer as an enzyme solution and a […] solution of 7-(N-succinyl-leucyl-leucyl-valyl-tyrosyl)-4-methylcoumarinamide (Peptide Institute, Inc.) in the same buffer as a substrate solution, each fluorescence (c1, c2 and c3) was determined, respectively.
as §2

Assay [6] concerns the target T5, cathepsin B (Bos taurus, UniProt P07688).
T5 construct: purchased Sigma; host or cells: bovine spleen
Kind of assay: Determination of cathepsin B-inhibitory activity. Format: biochemical, bovine. The note with it: read-out: inhibition rate, cathepsin B. As for the experimental part:
as §1
Determination of cathepsin B-inhibitory activity
Similarly, by following the procedure mentioned above, but employing a 100 mM sodium phosphate buffer (pH 6.0; containing 1.33 mM EDTA Na2) as a buffer for measurement, a 0.02 μM solution of cathepsin B (derived from bovine spleen, Sigma) in the same buffer as an enzyme solution and a 200 μM solution of 7-(N-benzyloxycarbonyl-phenylaranyl-arginyl)-4-methylcoumarinamide (Peptide Institute, Inc.) in the same buffer as a substrate solution, each fluorescence (f1, f2 and f3) was determined, respectively.
as §2

T1 sequence (P00772 27-266): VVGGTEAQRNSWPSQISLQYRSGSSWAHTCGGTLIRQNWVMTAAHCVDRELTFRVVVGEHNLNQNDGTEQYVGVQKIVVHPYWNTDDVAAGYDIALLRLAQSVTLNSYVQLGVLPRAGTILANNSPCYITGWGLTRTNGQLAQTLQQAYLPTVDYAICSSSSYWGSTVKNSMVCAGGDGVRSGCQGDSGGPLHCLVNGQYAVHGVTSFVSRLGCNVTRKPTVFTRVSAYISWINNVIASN
T2 sequence (O70196 whole entry): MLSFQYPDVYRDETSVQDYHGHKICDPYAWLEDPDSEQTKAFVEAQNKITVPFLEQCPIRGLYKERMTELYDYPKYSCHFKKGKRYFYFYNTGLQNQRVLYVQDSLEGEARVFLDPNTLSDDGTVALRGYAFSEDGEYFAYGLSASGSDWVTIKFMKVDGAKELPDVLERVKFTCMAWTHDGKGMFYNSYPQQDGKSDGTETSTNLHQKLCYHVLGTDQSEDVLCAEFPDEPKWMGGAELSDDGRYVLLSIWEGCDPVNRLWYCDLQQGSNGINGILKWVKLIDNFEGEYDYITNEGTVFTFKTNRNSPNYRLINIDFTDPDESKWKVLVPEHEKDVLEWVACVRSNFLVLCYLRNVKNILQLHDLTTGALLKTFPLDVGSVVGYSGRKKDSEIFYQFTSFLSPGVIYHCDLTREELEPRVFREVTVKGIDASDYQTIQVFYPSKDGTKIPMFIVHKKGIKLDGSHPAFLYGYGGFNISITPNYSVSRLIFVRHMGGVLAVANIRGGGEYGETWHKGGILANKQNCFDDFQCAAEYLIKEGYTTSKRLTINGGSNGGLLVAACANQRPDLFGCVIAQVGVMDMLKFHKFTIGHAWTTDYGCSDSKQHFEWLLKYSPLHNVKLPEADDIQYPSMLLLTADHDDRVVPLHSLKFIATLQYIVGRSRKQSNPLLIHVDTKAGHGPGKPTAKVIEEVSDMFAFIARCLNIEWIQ

In the case of `COc1ccc(OCC(=O)[C@@H]2CCCN2C(=O)[C@@H]2CCCN2C(=O)CCc2ccccc2)cc1` [Compound 20, (2S)-2-[(4-Methoxyphenoxy)acetyl]-1-[N-(3-phenylpropionyl)-L-prolyl]pyrrolidine], the “inhibition rate, leucine aminopeptidase” value in assay [1] (1 μM) came out at 0. Further, the inhibition at 1 µM came out at 0% in assay [2]; 96% in assay [3]; 0% in assay [4]; 0% in assay [5]; 0% in assay [6]. For the same compound, the half-inhibitory concentration (IC50) in assay [3] was determined as 40 nM.
`O=C(COc1ccccc1)[C@@H]1CCCN1C(=O)[C@@H]1CCCN1C(=O)NCc1ccccc1` [Compound 21, (2S)-1-(N-Benzylaminocarbonyl-L-prolyl)-2-(phenoxyacetyl)-pyrrolidine]: the “inhibition rate, leucine aminopeptidase” value in assay [1] (1 μM) is recorded as 0. Also, the inhibition at 1 µM amounted to 0% in assay [2]; 99% in assay [3]; 0% in assay [4]; 0% in assay [5]; 0% in assay [6]. The half-maximal inhibitory concentration (IC50) in assay [3] was 15 nM.
Consider `COc1ccc(OCC(=O)[C@@H]2CCCN2C(=O)[C@@H]2CCCN2C(=O)NCc2ccccc2)cc1` [Compound 22, (2S)-1-(N-Benzylaminocarbonyl-L-prolyl)-2-(4-methoxyphenoxyacetyl)pyrrolidine], for which the “inhibition rate, leucine aminopeptidase” value in assay [1] (1 μM) worked out at 0. Besides, the inhibition at 1 µM in assay [2] worked out at 0%; in assay [3] it was 97%; in assay [4] it was 0%; in assay [5] it was 0%; in assay [6], 0%. The half-inhibitory concentration (IC50) in assay [3] turned out to be 25 nM.
Turning to `COc1ccc([S@@+]([O-])CC(=O)[C@@H]2CCCN2C(=O)[C@@H]2CCCN2C(=O)NCc2ccccc2)cc1` [Compound 23, (2S)-1-(N-Benzylaminocarbonyl-L-prolyl)-2-{[(S)-4-methoxyphenylsulfinyl]acetyl}pyrrolidine], the “inhibition rate, leucine aminopeptidase” value in assay [1] (1 μM) stood at 0. Besides, the inhibition at 1 µM worked out at 0% in assay [2]; 99% in assay [3]; 0% in assay [4]; 0% in assay [5]; 0% in assay [6]. In addition, in assay [3], the half-maximal inhibitory concentration (IC50) was 15 nM.
Consider `COc1ccc(CNC(=O)N2CCC[C@H]2C(=O)N2CCC[C@H]2C(=O)C[S@+]([O-])c2ccc(OC)cc2)cc1` [Compound 24, (2S)-1-[N-(4-Methoxybenzylaminocarbonyl)-L-prolyl]-2-{[(S)-4-methoxyphenylsulfinyl]acetyl}pyrrolidine], for which the “inhibition rate, leucine aminopeptidase” value in assay [1] (0.1 μM) came out at 0. The inhibition at 0.1 µM in assay [2] was 0%; in assay [3], 99%; in assay [4] it was 0%; in assay [5] it was 0%; in assay [6], 0%. In assay [3], the IC50 is 0.5 nM.
In the case of `COc1ccc(CNC(=O)N2CCC[C@H]2C(=O)N2CCC[C@H]2C(=O)COc2ccc(OC)cc2)cc1` [Compound 25, (2S)-1-[N-(4-Methoxybenzylaminocarbonyl)-L-prolyl]-2-(4-methoxyphenoxyacetyl)pyrrolidine], the “inhibition rate, leucine aminopeptidase” value in assay [1] (0.1 μM) turned out to be 0. The inhibition at 0.1 µM in assay [2] worked out at 0%; in assay [3] it was 97%; in assay [4], 0%; in assay [5], 0%; in assay [6], 0%. For the same compound, the IC50 in assay [3] was determined as 2.5 nM.
With `O=C(COc1ccc(Cl)cc1)[C@@H]1CCCN1C(=O)[C@@H]1CCCN1C(=O)CCc1ccccc1` [Compound 26, (2S)-2-(4-Chlorophenoxyacetyl)-1-[N-(3-phenylpropionyl)-L-prolyl]pyrrolidine], in assay [1] (1 μM), the “inhibition rate, leucine aminopeptidase” value worked out at 0. Also, the inhibition at 1 µM in assay [2] is 0%; in assay [3] it was 99%; in assay [4], 0%; in assay [5] it was 0%; in assay [6] it was 0%. In assay [3], the IC50 was 4.5 nM.
`O=C(COc1ccc(O)cc1)[C@@H]1CCCN1C(=O)[C@@H]1CCCN1C(=O)CCc1ccccc1` [Compound 27, (2S)-2-(4-Hydroxyphenoxyacetyl)-l-[N-(3-phenylpropionyl)-L-prolyl]pyrrolidine]: the “inhibition rate, leucine aminopeptidase” value in assay [1] (0.1 μM) is listed as 0. Further, the inhibition at 0.1 µM in assay [2] was 0%; in assay [3], 96%; in assay [4] it was 0%; in assay [5] it was 0%; in assay [6] it was 0%. The concentration for half-maximal inhibition (IC50) in assay [3] stood at 2.5 nM.
`O=C(COc1ccc(Cl)cc1)[C@@H]1CCCN1C(=O)[C@@H]1CCCN1C(=O)NCc1ccc(Cl)cc1` [Compound 28, (2S)-1-[N-(4-Chlorobenzylaminocarbonyl)-L-prolyl]-2-(4-chlorophenoxyacetyl)pyrrolidine]: the “inhibition rate, leucine aminopeptidase” value in assay [1] (0.1 μM) amounted to 0. Further, the inhibition at 0.1 µM was 0% in assay [2]; 97% in assay [3]; 0% in assay [4]; 0% in assay [5]; 0% in assay [6]. In addition, in assay [3], the concentration for half-maximal inhibition (IC50) stood at 15 nM.
For the compound `O=C(COc1ccc(F)cc1)[C@@H]1CCCN1C(=O)[C@@H]1CCCN1C(=O)NCc1ccc(F)cc1` [Compound 29, (2S)-1-[N-(4-Fluorobenzylaminocarbonyl)-L-prolyl]-2-(4-fluorophenoxyacetyl)pyrrolidine], the “inhibition rate, leucine aminopeptidase” value in assay [1] (0.1 μM) came to 0. Besides, the inhibition at 0.1 µM came out at 0% in assay [2]; 99% in assay [3]; 0% in assay [4]; 0% in assay [5]; 0% in assay [6]. Also, in assay [3], the concentration for half-maximal inhibition (IC50) turned out to be 0.1 nM.
